Data reported in US20240081300A1, “ADRENERGIC MECHANISMS OF AUDIOGENIC SEIZURE-INDUCED DEATH IN MOUSE MODEL OF SCN8A ENCEPHALOPATHY” (University of Virginia Patent Foundation, priority 2021, published 2024).
“Also recorded” adds a separate entry of the source.

Experiments:
[1] = test system: P20-21 D/+ mice (Scn8a N1768D); test: Audiogenic seizure-induced death in P20-21 D/+ mice (adrenergic agonists, adrenergic blockade with mechanical ventilation); format: in vivo, mouse; details: for postictal breathing recovery (plethysmography): 3 mg/kg phenylephrine i.p. 1 minute prior
Method: (§1) Audiogenic seizure assessment. To test for audiogenic seizures mice were taken from their home cage and transferred to a clean test cage where they were allowed to acclimate for ˜20 seconds before the onset of the acoustic stimulus. Similar to a method described previously (Martin et al., 2020), a sonicator (Branson 200 ultrasonic cleaner) was used to produce the audiogenic stimulus directly adjacent to the test cage.
(§2) Audiogenic seizures were recorded using a laptop webcam. Duration of seizure phases were analyzed by taking the time in seconds that the mouse spent in each of the phases: a wild-running phase characterized by fast circular running throughout the cage, a tonic phase characterized by hindlimb extension and muscle rigidity, a clonic phase typified by myoclonic jerking of the hindlimbs, and recovery exemplified when the mouse ceased myoclonic jerking and righted itself. In cases where death occurred, the end of the tonic phase was apparent at the point of hindlimb muscle relaxation.
(§3) For recording of only breathing in pharmacological experiments, non-implanted mice were placed in the chambers immediately after injection of pharmacological agents. Stimulation of audiogenic seizures and recording of breathing were performed as described above.
Mechanical ventilation. For the mechanical ventilation of P20-21 D/+ mice during an audiogenic seizure, we quickly placed a custom-made 3 mL pipet which fit snuggly over the mouse's nose and mouth and provided regular pulses of air (˜1 mL at 2 Hz). The ventilation was terminated after the mouse initiated gasping behavior or 20 s after the animal experienced sudden death.
Adrenergic receptor pharmacology. All chemicals were purchased from Sigma Aldrich and were either of pharmaceutical grade or were sterile filtered prior to injection. Injections were given intraperitoneal in a volume of 50-100 ul sterile saline per […] of mouse weight (e.g. 0.1 mL for a […] adult mouse). […] Injection of 50-100 ul sterile saline per […] of mouse weight was used as control.

[2] = test system: DBA1 mice; details: intracerebroventricular injection (Zhao et al., 2017); cited from earlier work
[3] = test system: maximal electroshock seizures; details: intracerebroventricular injection (Kruse et al., 2019); cited from earlier work
[4] = test system: adult D/+ mice (Scn8a N1768D); test: Audiogenic seizure survival in adult D/+ mice after adrenergic receptor inhibition; format: in vivo, mouse; details: 10 mg/kg sotalol i.p. 15 minutes prior to audiogenic seizure stimulation
Method: as §1, §2, §3
Mechanical ventilation. […]

In the case of NC[C@H](O)c1ccc(O)c(O)c1 [NE, 4-[(1R)-2-amino-1-hydroxyethyl]benzene-1,2-diol], the “breathing recovery after tonic phase (plethysmography)” value ([1]; 2 mg/kg norepinephrine i.p. 1 minute prior) is reported as “resulted in breathing recovery” and the “survival after audiogenic seizure (mice surviving of mice tested)” value (shortened to “survival … (mice surviving of mice tested)”) ([1]; 2 mg/kg norepinephrine i.p. 1 minute prior to audiogenic seizure stimulation, saline 3 of 13, 2 mg/kg) is reported as 10 of 13 and significantly elevated rates of survival.

In the case of CNCC[C@@H](Oc1ccccc1C)c1ccccc1 [atomoxetine], the “prevention of death from audiogenic seizures” value [2] is listed as “prevents death”.

In the case of CNC[C@H](O)c1ccc(O)c(O)c1 [epinephrine], the “survival after audiogenic seizure (mice rescued of mice tested)” value ([1]; 2 mg/kg epinephrine i.p. 1 minute prior to audiogenic seizure stimulation, 2 mg/kg) is reported as “one of the five; also recorded: did not seem to result in rescue”.

With CNC[C@H](O)c1cccc(O)c1 [phenylephrine, 3-[(1R)-1-hydroxy-2-(methylamino)ethyl]phenol] the “survival … (mice surviving of mice tested)” value ([1]; 3 mg/kg phenylephrine i.p. 1 minute prior to audiogenic seizure stimulation, 3 mg/kg) was 7 out of 8 and rescued death, the “survival … (mice surviving of mice tested)” value ([1]; 3 mg/kg phenylephrine i.p. 1 minute prior to audiogenic seizure stimulation, listed as PE, 3 mg/kg) was “significantly elevated rates of survival” and the “postictal breathing recovery (plethysmography)” value ([1]; 3 mg/kg) was “promoted postictal breathing recovery”. The “postictal breathing recovery (plethysmography)” value ([1]; listed as PE, 3 mg/kg) was “breathing also ceased during the tonic phase but recovered” and the “prevention of death from maximal electroshock seizures” value [3] was “prevents death”.

In the case of CC(C)NCC(O)c1ccc(NS(C)(=O)=O)cc1 (stereo not shown) [sotalol], the “survival … (mice surviving of mice tested)” value [4] is reported as 12 out of 12 and had no affect on death rate.
